Assay results: patent US12421243B2, “Pharmaceutically effective compounds inhibiting selectively the myosin 2 isoforms” (PRINTNET KERESKEDELMI ÉS SZOLGÁLTATÓ KFT., priority 2018, dated 2025)

Key:
[1] = target: isolated smooth muscle myosin (UniProt P10587); type: biochemical, chamois; conditions: for % inhibition at 5 μM (or 10 μM if racemate) Smooth: 5 μM (10 μM if racemate); for % inhibition at 5 μM (or 10 μM if racemate) Smooth / % inhibition at 50 μM (or 100 μM if racemate) Smooth: ATPase activity; for % inhibition at 50 μM (or 100 μM if racemate) Smooth: 50 μM (100 μM if racemate); for % inhibition. complete Smooth: maximum value of inhibition of ATPase activity; for Inhibition (%) smooth: maximum inhibition, compounds in IC50 range 1-5 μM
[2] = target: recombinant human non-muscle myosin 2 NM2A (Homo sapiens, UniProt P35579); test: actomyosin steady state ATPase measurement, NM2A; type: biochemical; conditions: for IC50: concentration required for semi-maximal inhibition of ATPase; for % inhibition. complete NM2A: maximum value of inhibition of ATPase activity; for inhibition at 5 µM: read-out: % inhibition at 5 μM (or 10 μM if racemate) NM2A, 5 μM (10 μM if racemate); for inhibition at 5 µM / inhibition at 50 µM: ATPase activity; for inhibition at 50 µM: read-out: % inhibition at 50 μM (or 100 μM if racemate) NM2A, 50 μM (100 μM if racemate); for Inhibition (%) NM2A: maximum inhibition, compounds in IC50 range 5-10 μM
Source text: (§1) […]; (ii) the concentration required for semi-maximal inhibition.

[3] = target: recombinant Dictyostelium miozin (Dictyostelium) (Dictyostelium discoideum, UniProt P08799); test: actomyosin steady state ATPase measurement, Dictyostelium myosin; type: biochemical; conditions: for IC50: concentration required for semi-maximal inhibition of ATPase, read-out: IC50 (μM) Dicty; for % inhibition. complete Dicty: maximum value of inhibition of ATPase activity; for inhibition at 5 µM: read-out: % inhibition at 5 μM (or 10 μM if racemate) Dicty; for inhibition at 50 µM: read-out: % inhibition at 50 μM (or 100 μM if racemate) Dicty
Source text: as §1

[4] = target: T1, isolated porcine cardiac ventricular myocardium (cardiac) (Sus scrofa, UniProt P79293); test: actomyosin steady state ATPase measurement, cardiac myosin; type: biochemical; conditions: for IC50: concentration required for semi-maximal inhibition of ATPase; for % inhibition. complete cardiac: maximum value of inhibition of ATPase activity; for inhibition at 5 µM: read-out: % inhibition at 5 μM (or 10 μM if racemate) cardiac, 5 μM (10 μM if racemate); for inhibition at 5 µM / inhibition at 50 µM: ATPase activity; for inhibition at 50 µM: read-out: % inhibition at 50 μM (or 100 μM if racemate) cardiac, 50 μM (100 μM if racemate)
T1 construct: isolated porcine cardiac ventricular myocardium (cardiac); from tissue; host or cells: porcine cardiac ventricle
Source text: as §1

[5] = system: isolated rabbit skeletal muscle myosin (skeletal); test: actomyosin steady state ATPase measurement, skeletal muscle myosin; type: biochemical; conditions: for % inhibition at 5 μM (or 10 μM if racemate) Skeletal: 5 μM (10 μM if racemate); for % inhibition at 5 μM (or 10 μM if racemate) Skeletal / % inhibition at 50 μM (or 100 μM if racemate) Skeletal: ATPase activity; for % inhibition at 50 μM (or 100 μM if racemate) Skeletal: 50 μM (100 μM if racemate); for IC50: concentration required for semi-maximal inhibition of ATPase; for % inhibition. complete Skeletal: maximum value of inhibition of ATPase activity
Source text: as §1

[6] = target: isolated smooth muscle myosin (UniProt P10587); type: biochemical, chamois; conditions: concentration required for semi-maximal inhibition of ATPase
Source text: (ii) the concentration required for semi-maximal inhibition.

[7] = target: recombinant human non-muscle myosin 2 NM2B (Homo sapiens, UniProt P35580); test: actomyosin steady state ATPase measurement, NM2B; type: biochemical; conditions: for IC50: concentration required for semi-maximal inhibition of ATPase; for inhibition at 5 µM: read-out: % inhibition at 5 μM (or 10 μM if racemate) NM2B, 5 μM (10 μM if racemate); for inhibition at 5 µM / inhibition at 50 µM: ATPase activity; for inhibition at 50 µM: read-out: % inhibition at 50 μM (or 100 μM if racemate) NM2B, 50 μM (100 μM if racemate)
Source text: as §1

[8] = target: recombinant human non-muscle myosin 2 NM2C (Homo sapiens, UniProt Q7Z406); test: actomyosin steady state ATPase measurement, NM2C; type: biochemical; conditions: for IC50: concentration required for semi-maximal inhibition of ATPase; for % inhibition. complete NM2C: maximum value of inhibition of ATPase activity; for inhibition at 5 µM: read-out: % inhibition at 5 μM (or 10 μM if racemate) NM2C, 5 μM (10 μM if racemate); for inhibition at 5 µM / inhibition at 50 µM: ATPase activity; for inhibition at 50 µM: read-out: % inhibition at 50 μM (or 100 μM if racemate) NM2C, 50 μM (100 μM if racemate); for Inhibition (%) NM2C: maximum inhibition, compounds in IC50 range 1-5 μM
Source text: as §1

Chain of recombinant Dictyostelium miozin (Dictyostelium) (P08799 whole entry): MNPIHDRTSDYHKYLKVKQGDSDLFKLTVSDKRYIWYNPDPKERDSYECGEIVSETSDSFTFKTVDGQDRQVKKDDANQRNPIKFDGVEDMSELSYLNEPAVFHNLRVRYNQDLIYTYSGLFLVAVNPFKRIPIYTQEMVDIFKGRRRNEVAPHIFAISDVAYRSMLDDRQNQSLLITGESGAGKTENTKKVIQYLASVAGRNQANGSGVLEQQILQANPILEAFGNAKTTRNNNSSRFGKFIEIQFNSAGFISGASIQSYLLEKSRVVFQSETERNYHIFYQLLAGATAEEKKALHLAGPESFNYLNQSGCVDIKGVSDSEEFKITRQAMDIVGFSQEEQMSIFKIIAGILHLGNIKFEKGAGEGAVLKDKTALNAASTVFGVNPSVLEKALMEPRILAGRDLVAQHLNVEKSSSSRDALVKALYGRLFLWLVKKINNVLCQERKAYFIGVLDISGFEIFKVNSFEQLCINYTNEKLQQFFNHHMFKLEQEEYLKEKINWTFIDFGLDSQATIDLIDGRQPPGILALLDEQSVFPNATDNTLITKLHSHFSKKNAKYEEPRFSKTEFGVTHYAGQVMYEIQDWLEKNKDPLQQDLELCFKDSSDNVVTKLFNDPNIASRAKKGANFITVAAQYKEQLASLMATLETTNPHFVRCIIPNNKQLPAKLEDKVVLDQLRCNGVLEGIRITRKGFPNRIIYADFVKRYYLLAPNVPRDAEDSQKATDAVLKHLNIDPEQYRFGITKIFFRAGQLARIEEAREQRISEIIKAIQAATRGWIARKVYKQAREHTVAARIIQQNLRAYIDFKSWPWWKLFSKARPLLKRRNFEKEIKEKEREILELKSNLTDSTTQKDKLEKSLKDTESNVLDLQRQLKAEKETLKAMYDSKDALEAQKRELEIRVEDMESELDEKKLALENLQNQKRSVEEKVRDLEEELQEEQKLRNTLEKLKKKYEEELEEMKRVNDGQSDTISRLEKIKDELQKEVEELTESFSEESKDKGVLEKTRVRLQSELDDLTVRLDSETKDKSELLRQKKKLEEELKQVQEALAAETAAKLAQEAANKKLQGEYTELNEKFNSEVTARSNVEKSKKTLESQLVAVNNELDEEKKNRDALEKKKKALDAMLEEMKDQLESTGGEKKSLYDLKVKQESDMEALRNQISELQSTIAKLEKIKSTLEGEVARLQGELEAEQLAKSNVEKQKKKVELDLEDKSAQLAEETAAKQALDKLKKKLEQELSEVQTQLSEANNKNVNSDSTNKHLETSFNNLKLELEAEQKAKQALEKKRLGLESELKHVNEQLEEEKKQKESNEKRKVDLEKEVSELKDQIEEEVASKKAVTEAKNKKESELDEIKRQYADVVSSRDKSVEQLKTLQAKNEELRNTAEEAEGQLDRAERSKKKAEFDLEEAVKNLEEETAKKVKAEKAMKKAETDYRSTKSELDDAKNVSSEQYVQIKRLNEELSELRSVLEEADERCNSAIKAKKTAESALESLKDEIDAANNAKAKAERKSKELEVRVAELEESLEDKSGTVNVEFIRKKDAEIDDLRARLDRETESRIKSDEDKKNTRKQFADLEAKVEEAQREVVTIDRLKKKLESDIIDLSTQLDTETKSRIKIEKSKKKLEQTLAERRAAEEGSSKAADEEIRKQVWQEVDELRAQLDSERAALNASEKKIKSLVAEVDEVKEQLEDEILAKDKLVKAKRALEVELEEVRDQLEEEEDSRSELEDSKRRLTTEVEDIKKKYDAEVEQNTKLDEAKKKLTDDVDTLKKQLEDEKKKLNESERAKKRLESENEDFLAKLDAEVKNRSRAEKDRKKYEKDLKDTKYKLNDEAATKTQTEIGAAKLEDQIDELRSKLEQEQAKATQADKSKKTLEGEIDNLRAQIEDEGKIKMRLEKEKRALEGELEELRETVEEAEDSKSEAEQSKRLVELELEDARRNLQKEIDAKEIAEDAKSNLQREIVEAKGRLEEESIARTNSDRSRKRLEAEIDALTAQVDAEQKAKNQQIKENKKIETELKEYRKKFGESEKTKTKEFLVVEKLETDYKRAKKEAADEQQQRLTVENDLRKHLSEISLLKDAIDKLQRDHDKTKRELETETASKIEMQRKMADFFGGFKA
Chain of isolated smooth muscle myosin (P10587 whole entry): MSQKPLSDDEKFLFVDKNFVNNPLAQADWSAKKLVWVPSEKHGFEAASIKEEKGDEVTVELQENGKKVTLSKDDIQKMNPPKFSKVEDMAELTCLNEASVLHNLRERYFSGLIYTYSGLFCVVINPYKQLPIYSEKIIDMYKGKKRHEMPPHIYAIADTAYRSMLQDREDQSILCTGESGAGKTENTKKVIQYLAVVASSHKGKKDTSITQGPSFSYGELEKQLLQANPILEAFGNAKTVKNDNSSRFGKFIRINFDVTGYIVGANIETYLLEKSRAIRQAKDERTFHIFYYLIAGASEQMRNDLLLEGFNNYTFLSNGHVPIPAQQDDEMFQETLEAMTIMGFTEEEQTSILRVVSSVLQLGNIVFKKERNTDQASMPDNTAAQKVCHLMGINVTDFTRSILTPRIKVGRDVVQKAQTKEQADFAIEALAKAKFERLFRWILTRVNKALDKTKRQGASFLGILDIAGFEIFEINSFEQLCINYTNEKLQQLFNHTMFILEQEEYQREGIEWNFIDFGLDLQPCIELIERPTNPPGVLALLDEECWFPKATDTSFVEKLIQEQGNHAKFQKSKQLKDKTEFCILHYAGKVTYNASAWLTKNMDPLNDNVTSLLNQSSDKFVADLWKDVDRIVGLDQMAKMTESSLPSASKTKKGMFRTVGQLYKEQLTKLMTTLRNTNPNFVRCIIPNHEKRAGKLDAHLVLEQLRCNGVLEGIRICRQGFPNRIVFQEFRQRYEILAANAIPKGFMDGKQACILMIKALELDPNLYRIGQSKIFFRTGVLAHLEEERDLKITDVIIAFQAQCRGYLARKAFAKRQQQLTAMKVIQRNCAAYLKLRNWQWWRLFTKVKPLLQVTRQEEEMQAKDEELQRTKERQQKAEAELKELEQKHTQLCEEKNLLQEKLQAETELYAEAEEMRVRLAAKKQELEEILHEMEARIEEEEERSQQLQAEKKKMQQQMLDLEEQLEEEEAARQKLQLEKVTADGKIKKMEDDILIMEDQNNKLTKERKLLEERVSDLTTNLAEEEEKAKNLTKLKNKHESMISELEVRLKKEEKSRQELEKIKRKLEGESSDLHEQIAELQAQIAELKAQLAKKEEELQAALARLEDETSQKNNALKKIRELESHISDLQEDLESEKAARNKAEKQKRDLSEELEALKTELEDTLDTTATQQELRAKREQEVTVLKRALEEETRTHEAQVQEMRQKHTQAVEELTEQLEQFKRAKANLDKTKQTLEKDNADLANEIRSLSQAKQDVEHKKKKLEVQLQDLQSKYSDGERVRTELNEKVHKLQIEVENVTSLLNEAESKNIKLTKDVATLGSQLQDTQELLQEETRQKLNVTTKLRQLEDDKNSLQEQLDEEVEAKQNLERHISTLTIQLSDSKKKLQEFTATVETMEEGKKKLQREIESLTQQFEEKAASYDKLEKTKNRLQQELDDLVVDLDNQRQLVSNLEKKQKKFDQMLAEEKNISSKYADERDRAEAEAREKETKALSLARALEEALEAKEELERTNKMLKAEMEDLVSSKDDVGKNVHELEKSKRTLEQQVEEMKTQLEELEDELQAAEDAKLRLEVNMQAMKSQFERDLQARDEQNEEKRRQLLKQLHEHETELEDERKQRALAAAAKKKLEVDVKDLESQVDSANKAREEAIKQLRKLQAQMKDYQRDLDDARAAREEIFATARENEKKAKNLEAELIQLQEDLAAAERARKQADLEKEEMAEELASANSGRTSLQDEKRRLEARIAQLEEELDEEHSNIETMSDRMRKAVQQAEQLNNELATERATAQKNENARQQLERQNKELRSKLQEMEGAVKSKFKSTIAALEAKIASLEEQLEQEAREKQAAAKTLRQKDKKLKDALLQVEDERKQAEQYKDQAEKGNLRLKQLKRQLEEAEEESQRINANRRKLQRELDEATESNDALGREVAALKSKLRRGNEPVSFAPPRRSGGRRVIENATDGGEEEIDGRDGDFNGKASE

SMILES | % inhibition at 5 μM (or 10 μM if racemate) Smooth [1] [%] | % inhibition at 50 μM (or 100 μM if racemate) Smooth [1] [%] | % inhibition. complete Smooth [1] [%] | IC50 [3] [µM] | % inhibition. complete Dicty [3] [%] | inhibition at 5 µM [3] [%] | inhibition at 50 µM [3] [%] | IC50 [4] [µM] | % inhibition. complete cardiac [4] [%] | inhibition at 5 µM [4] [%] | inhibition at 50 µM [4] [%] | % inhibition at 5 μM (or 10 μM if racemate) Skeletal [5] [%] | % inhibition at 50 μM (or 100 μM if racemate) Skeletal [5] [%] | IC50 [5] [µM] | % inhibition. complete Skeletal [5] [%] | IC50 [6] [µM] | IC50 [8] [µM] | % inhibition. complete NM2C [8] [%] | inhibition at 5 µM [8] [%] | inhibition at 50 µM [8] [%] | other results
O=C1c2sccc2N=C2N(c3ccccc3)CCC12O (centres unmarked) [Compound 183, 7-Hydroxy-4-phenyl-10-thia-2,4-diazatricyclo[7.3.0.0^3,7]dodeca-1(9),2,11-trien-8-one] | 17 | 51 | 66 | 5 | 100 | 26 | 80 | 8 | 84 | 33 | 73 | 80 | 93 | 1 | 95 | 15 | 60 | 83 | 6 | 37 | IC50 [2]: 87 µM; % inhibition. complete NM2A [2]: 100%; inhibition at 5 µM [2]: 4%; inhibition at 50 µM [2]: 37%; IC50 [7]: 12 µM; % inhibition. complete NM2B ([7]; maximum value of inhibition of ATPase activity): 56%; inhibition at 5 µM [7]: 16%; inhibition at 50 µM [7]: 45%
O=C1c2cccnc2N=C2N(c3ccccc3)CCC12O (centres unmarked) [Compound 189, 3a-Hydroxy-1-phenyl-1H,2H,3H,3aH,4H-pyrrolo[2,3-b]1,8-naphthyridin-4-one] | 8 | 7 | 8 | > 100 |  | 0 | 0 | 26 | 72 | 11 | 47 | 37 | 80 | 7 | 92 | 1 | 1 |  | 11 | 13 | Inhibition (%) smooth [1]: 8%; IC50 [2]: 6 µM; Inhibition (%) NM2A [2]: 8%; % inhibition. complete NM2A [2]: 8%; inhibition at 5 µM [2]: 4%; inhibition at 50 µM [2]: 7%; IC50 [7]: > 100 µM; inhibition at 5 µM [7]: 0%; inhibition at 50 µM [7]: -5%
O=C1c2ncccc2N=C2N(c3ccccc3)CCC12O (centres unmarked) [Compound 190, 8a-Hydroxy-6-phenyl-6H,7H,8H,8aH,9H-pyrrolo[2,3-b]1,5-naphthyridin-9-one] |  | 34 |  |  |  |  | 44 |  |  |  | 43 |  | 86 |  |  |  |  |  |  | 41 | inhibition at 50 µM [2]: 15%; inhibition at 50 µM [7]: 24%
Cc1nsc2c1C(=O)C1(O)CCN(c3ccccc3)C1=N2 (centres unmarked) [Compound 206, 12-phenyl-9-Hydroxy-6-methyl-4-thia-2,5,12-triazatricyclo[7.3.0.0^3,7]dodeca-1,3(7),5-trien-8-one] | 9 | 21 | 24 |  |  |  |  | 10 | 47 | 16 | 39 | 26 | 78 | 14 | 100 | 9 |  |  |  |  | inhibition at 5 µM [2]: 9%
Cc1cc2c(s1)N=C1N(c3cccs3)CC[C@@]1(O)C2=O [Compound 208, (9S)-9-Hydroxy-5-methyl-12-(thiophen-2-yl)-4-thia-2,12-diazatricyclo[7.3.0.0^3,7]dodeca-1,3(7),5-trien-8-one] | 26 | 60 | 66 | 3.6 | 95 | 55 | 89 |  |  |  |  | 87 | 93 | 0.36 | 95 | 7.8 | 1.7 | 69 | 54 | 65 | IC50 [2]: 7.2 µM; Inhibition (%) NM2A [2]: 89%; % inhibition. complete NM2A [2]: 89%; inhibition at 5 µM [2]: 37%; inhibition at 50 µM [2]: 78%; Inhibition (%) Dicty ([3]; maximum inhibition, compounds in IC50 range 1-11 μM): 95%
Cc1cc2c(s1)N=C1N(c3ccc(CO)cc3)CCC1(O)C2=O (centres unmarked) [Compound 227, 9-Hydroxy-12-[4-(hydroxymethyl)phenyl]-5-methyl-4-thia-2,12-diazatricyclo[7.3.0.0^3,7]dodeca-1,3(7),5-trien-8-one] | 54 | 92 | 99 | 5.1 | 100 | 47 | 96 | 0.76 | 90 | 77 | 89 | 82 | 96 | 0.83 | 97 | 4 | 2.8 | 84 | 52 | 80 | Inhibition (%) NM2C [8]: 84%
Cc1cc2c(s1)N=C1N(c3cccs3)CCC1(O)C2=O (centres unmarked) [Compound 229, 9-Hydroxy-5-methyl-12-(thiophen-2-yl)-4-thia-2,12-diazatricyclo[7.3.0.0^3,7]dodeca-1,3(7),5-trien-8-one] | 54 | 87 | 93 | 1.4 | 97 | 74 | 95 | 1.4 | 93 | 54 | 87 | 87 | 96 | 0.61 | 97 | 3.4 | 1.1 | 100 | 78 | 98 | Inhibition (%) smooth [1]: 93%
COc1ccc(N2CCC3(O)C(=O)c4cc(C)sc4N=C23)cn1 (centres unmarked) [Compound 230, 9-Hydroxy-12-(6-methoxypyridin-3-yl)-5-methyl-4-thia-2,12-diazatricyclo[7.3.0.0^3,7]dodeca-1,3(7),5-trien-8-one] | 56 | 96 | 100 | 8.1 | 100 | 36 | 90 | 1.9 | 96 | 68 | 93 | 85 | 92 | 0.43 | 93 | 3.6 | 2.3 | 93 | 61 | 89 | Inhibition (%) smooth [1]: 100%; Inhibition (%) NM2C [8]: 93%
Cc1ccc(N2CC[C@@]3(O)C(=O)c4ccsc4N=C23)cc1 [Compound 233, (9S)-9-Hydroxy-12-(4-methylphenyl)-4-thia-2,12-diazatricyclo[7.3.0.0^3,7]dodeca-1,3(7),5-trien-8-one] | 29 | 70 | 83 | 17 | 100 | 21 | 76 | 0.82 | 88 | 74 | 87 | 92 | 98 | 0.32 | 98 | 8.8 | 2.1 | 72 | 48 | 69 | Inhibition (%) NM2C [8]: 72%
